Consider 85 molecules from ChEMBL document CHEMBL1157539, “Thousands of chemical starting points for antimalarial lead identification” (Nature, 2010).

This test relates to Plasmodium falciparum. The experiment in a line: GSK_TCMDC: Inhibition of Plasmodium falciparum 3D7 in whole erythrocytes, using parasite LDH activity as an index of growth. The format is functional, organism-based. The settings on record: Plasmodium falciparum, 3D7.
Regarding `CCOc1ccc2nc(C)cc(N/N=C/c3cccc([N+](=O)[O-])c3)c2c1`, the XC50 came to 0.664 µM. `O=C(/C=C/c1ccc([N+](=O)[O-])cc1)N1CCC(CCN2CCC(c3c[nH]c4ccccc34)CC2)CC1` registered an XC50 of 0.743 µM. `CC1CCN(Cc2c(O)ccc3c(O)c(-c4nc5ccccc5s4)c(=N)oc23)CC1` yielded an XC50 of 0.162 µM.

`CCN(CC)CCN(Cc1ccc(-c2ccc(C(F)(F)F)cc2)cc1)C(=O)Cn1c(CCc2cccc(F)c2F)cc(=O)c2c1CCCC2` gave an XC50 of 0.866 µM. `CN(C)Cc1c(O)ccc2[nH]c(-c3cccc(F)c3)nc12` had an XC50 of 1 µM. In the case of `c1ccc(OCCOc2ccc(Nc3ccnc4cc5ccccc5cc34)cc2)cc1` it was 0.252 µM. In turn, `Cc1ccc(/C=C/C(=O)NCCCCCN2CCC(c3c[nH]c4ccccc34)CC2)cc1` yielded an XC50 of 1.01 µM. The molecule `Cc1cc(CN2C(=O)C(c3ccccc3)(c3ccccc3)N=C2N)c(C(F)(F)F)o1` gave an XC50 of 0.956 µM. As to `Oc1cccc(-c2nc(-c3cccc(I)c3)c(-c3ccc(-c4nc(-c5cccc(O)c5)[nH]c4-c4cccc(I)c4)cc3)[nH]2)c1`, the XC50 amounted to 0.925 µM. For the molecule `CC1(C)NC(N)=NC(=N)N1OCCCOc1ccc(N)cc1`, the XC50 stood at 0.00704 µM. In the case of `CC(=O)C1(c2ccccc2)CCN(CCC2(c3ccc(Cl)c(Cl)c3)CN(C(=O)Nc3cccc(C(F)(F)F)c3)CCO2)CC1` (stereo not given) it was 1.05 µM; in that of `O=C(Cc1ccccc1)NC(c1ccco1)c1cc(Cl)c2cccnc2c1O` (stereo not given), 0.691 µM; in that of `COc1cc(OC)c2c(c1Cl)O[C@]1(C2=O)C(=O)C(Cc2ccccc2)(Cc2ccccc2)C(=O)C[C@H]1C`, 0.974 µM. The molecule `COc1ccc2nccc(NCC3(O)CCC(NCc4ccc5c(n4)NC(=O)CS5)CC3)c2n1` (stereo not given) displayed an XC50 of 0.689 µM. Consider `CN1CCN(c2cc(NC(=O)c3ccc(-c4ccc(C#N)cc4)cc3)ccc2Cl)CC1`, for which the XC50 was 0.464 µM. The molecule `CCC(C)NS(=O)(=O)c1ccc2nc(Nc3ccc(C)cc3)n([C@H](C)C(C)(C)C)c2c1` (stereo not given in full) gave an XC50 of 0.391 µM. `COc1cc(/C=C/C(=O)NC2CCC(N3CCC(c4ccccc4C)CC3)CC2)cc(OC)c1` (stereo not given) registered an XC50 of 0.979 µM. The molecule `CCCOc1cc(NC(=O)Nc2ccnc3ccccc23)cc(OCCC)c1` yielded an XC50 of 0.732 µM. Molecule `Cc1ccnc(-n2c(C)cc(C=C3SC(=Nc4ccccc4)N(Cc4ccco4)C3=O)c2C)c1` yielded an XC50 of 0.237 µM. As for `O=C(/C=C/c1ccc(Cl)c(Cl)c1)NCCCCCN1CCC(NC(=O)Nc2cc(F)ccc2F)CC1`, the figure is 0.697 µM; as for `Cc1cccc2nc(-c3cccc(-c4ccc(NC(=O)C(C)CN(C)C)cc4)c3)[nH]c12` (stereo not given), 0.222 µM. As for `Cc1ccccc1Oc1nc2ccccc2nc1SCC(=O)NC(C)C`, the figure is 0.197 µM; as for `O=C(/C=C/c1ccc(Cl)c(Cl)c1)N1CCC(CN2CCC(c3c[nH]c4ccc(NS(=O)(=O)c5cccs5)cc34)CC2)CC1`, 0.218 µM; as for `Cc1ccccc1N1CCN(c2ccc(C(=O)NC3CC3)cn2)CC1`, 0.459 µM. In turn, `CCC(C)(C)C1CCc2nc(N)nc(N)c2C1` (stereo not given) registered an XC50 of 0.00638 µM.

In turn, `COc1cccc(C=NN=c2cc(C)[nH]c3ccccc23)c1` registered an XC50 of 0.937 µM. The molecule `Cc1cc(CNCCCCCCCNCc2ccc(Cl)cc2)ccc1O` gave an XC50 of 0.975 µM. With `c1ccc2c(NCCOCCNc3c4ccccc4nc4ccccc34)c3ccccc3nc2c1`, the XC50 stood at 0.878 µM. In the case of `NC(=O)c1sc(-n2cnc3ccc(OCC4CCNCC4)cc32)cc1OCc1ccccc1C(F)(F)F` it was 0.753 µM; in that of `CC(C#N)Cc1ccc(-c2cnc(N)c3cc(-c4ccnc(N)n4)ccc23)cc1` (stereo not given), 0.986 µM; in that of `CO/C(=C\C=C\c1cc2cc(Cl)c(Cl)cc2[nH]1)C(=O)NC1CC2CCC(C1)N2C` (stereo not given), 1.03 µM. Molecule `CC(=O)Nc1ccc(CN2CCC(NC(=O)c3ccc(-c4ccc(N(C)C)cc4)s3)CC2)cc1` came in with an XC50 of 0.869 µM. For the molecule `CC(C)CCN1CCC(Oc2cccc(NC(=O)c3ccc(C(F)(F)F)cc3)c2)CC1`, the XC50 amounted to 0.63 µM. In turn, `Cc1ccc(NS(=O)(=O)c2cccs2)cc1-c1cccc(C(=O)Nc2ccc(F)cc2)c1` showed an XC50 of 0.653 µM. Turning to `CC(C)C1CCc2nc(N)nc(N)c2C1` (stereo not given), the XC50 came to 0.139 µM. Regarding `CCCCCCN1CCCN(Cc2ccc(C(=O)Nc3ccc(C(C)(C)C)cc3)cc2)CC1`, the XC50 is 0.744 µM. For `Cc1cccc(CN2CCN(c3ncc(C(=O)NC4CC4)cc3Cl)CC2)c1`, the XC50 was found to be 1.31 µM. As to `CCN(CCCN1CCCCC1)c1cc(C)nc(Nc2ccc(F)c(C(F)(F)F)c2)n1`, the XC50 is 0.147 µM. Take `CCc1cn(CC(=O)N(CCOc2ccc(-c3ccc(C(F)(F)F)cc3)cc2)CCN(CC)CC)c(SCc2ccc(F)cc2)nc1=O`: the XC50 worked out at 0.777 µM.

`CN(c1ccnc(Nc2ccc(CS(C)(=O)=O)cc2)n1)C1CCN(Cc2ccccc2)CC1` yielded an XC50 of 1.4 µM. Consider `COC(=O)c1ccc(CC(C)NCC(O)c2ccc3ccc4ccccc4c3c2)cc1` (stereo not given), for which the XC50 turned out to be 0.223 µM. For `CC(C)c1sc(N2CCN(C)CC2)nc1C(=O)NCCc1ccc(Cl)c(Cl)c1`, the XC50 worked out at 1.05 µM. In the case of `O=C(NCCc1ccc(Cl)c(Cl)c1)C1CCCN(C(=O)c2ccc(O)c(-c3ccc(Cl)c(Cl)c3)c2)C1` (stereo not given) it was 0.78 µM; in that of `O=C(/C=C/c1ccc(Cl)c(Cl)c1)NCCCCCN1CCC(NC(=O)c2ccc(F)c(F)c2)CC1`, 0.788 µM; in that of `COc1nc(NCC(C)C)nc(Oc2ccc(=O)n(Cc3ccccc3)n2)n1`, 0.631 µM. The molecule `COc1cc2nc(N3CCC(CNC(=O)c4ccc(-c5ccc(C(=O)N(C)C)cc5OCCO)cc4)CC3)nc(N)c2cc1OC` showed an XC50 of 0.645 µM. The molecule `CCOc1ccc(C(C)NC(=O)C2COc3ccccc3O2)cc1OCC` (stereo not given) had an XC50 of 0.899 µM. `Cc1ccc(Cn2ncc(N3CC(C)NC(C)C3)c(Cl)c2=O)cc1NC(=O)Nc1ccc(-c2ccccc2)cc1` (stereo not given) had an XC50 of 0.739 µM. The molecule `CN1c2ccc([N+](=O)[O-])cc2C(C)(C)C12C=Cc1cc(Br)cc([N+](=O)[O-])c1O2` (stereo not given) returned an XC50 of 0.785 µM. On to `CC(=O)Nc1nc(C(=O)Nc2cccc(-c3cccc(-c4nc5ccccc5[nH]4)c3)c2)cs1`, for which the XC50 is 0.172 µM. For `N#Cc1ccc(-c2ccc(C(=O)Nc3ccc4c(c3)CCN(C3CCC3)CC4)nc2)cn1`, the XC50 is 1.16 µM. For the molecule `CC(=O)Oc1cc(C)ccc1C1CCN(CCCCNC(=O)c2ccc(NC(=O)c3ccc(Cl)cc3)cc2)CC1`, the XC50 turned out to be 0.721 µM. As for `COc1ccc(NC(=O)[C@H](Cc2ccccc2)Nc2cc(C)nc(NCCc3ccc(F)cc3)n2)cc1`, the XC50 came to 1.12 µM. The molecule `C=CCc1cc(OC)ccc1OCCCOc1c(C)nc(N)nc1N` gave an XC50 of 0.0032 µM. `O=C(NCCN1CCC(NC(=O)c2ccc(-c3ccccn3)s2)CC1)c1ccc(Cl)c(Cl)c1` registered an XC50 of 0.881 µM. As for `CN(C)c1ccc(-c2ccc(C(=O)NC3CCN(Cc4ccc(C(C)(C)C)cc4)CC3)s2)cc1`, the figure is 0.97 µM.

`CN(C)CCCOc1ccccc1CN1CC[C@H](NC(=O)c2ccc(Cl)c(Cl)c2)C1` yielded an XC50 of 1.11 µM. Molecule `O=c1ccc(CNc2nc(NCCc3ccccc3)nc3ccc(Cl)cc23)c[nH]1` registered an XC50 of 0.783 µM. For the molecule `Cc1cc(O)nc(NC(=N)NOCCCc2ccccc2)n1`, the XC50 amounted to 0.76 µM.

`O=C(/C=C/c1ccc(Cl)c(Cl)c1)NCCCCCN1CCCC(C(=O)Nc2ccc(Cl)cc2)C1` (stereo not given) returned an XC50 of 0.851 µM.

Take `Cc1[nH]c2ccc(NS(C)(=O)=O)cc2c1C1CCN(CCC2CCN(C(=O)/C=C/c3ccc(Cl)c(Cl)c3)CC2)CC1`: the XC50 is 0.844 µM. The molecule `CCCCNc1cc(NCCCC)c2c(n1)[nH]c1ccccc12` had an XC50 of 0.57 µM. Consider `C=CCc1cc(Br)ccc1OCCCOc1c(N)nc(N)nc1N`, for which the XC50 is 0.192 µM. `CC(C)(C)C(C)(C)Cc1ccc(O)c(CN2CCN(c3ccccc3)CC2)c1` displayed an XC50 of 0.601 µM. For `CCNc1cc(C(=O)N[C@@H](Cc2ccccc2)[C@H](O)CNC(C)Cc2cccc(Cl)c2)cc(N2CCCCS2(=O)=O)c1` (stereo not given in full), the XC50 worked out at 0.496 µM. `Cc1ccc(-n2c(=O)c3c(n4c(SC(C)C)nnc24)-c2ccccc2CC32CCCCC2)cc1` returned an XC50 of 0.946 µM. On to `Cc1ccccc1-c1nc2c(CN3CCC(O)(c4ccccc4)CC3)c(O)ccc2[nH]1`, for which the XC50 is 0.866 µM. As to `O=C(Nc1cccc(CN2CCCN(Cc3ccc(O)cc3)CC2)c1)c1cc2ccccc2s1`, the XC50 was 0.362 µM. In the case of `Fc1ccccc1COc1ccc(Nc2ncnc3ccc(-c4nnc(C(F)(F)F)o4)cc23)cc1Cl` it was 0.731 µM.

`Cc1ccc(N2CCN(CCCCNC(=O)c3ccc(NC(=O)c4ccc(Cl)cc4)cc3)CC2)c(C)c1` yielded an XC50 of 0.764 µM. Turning to `COc1cc(CCNc2nc(NCc3ccccc3-c3ccccc3)nc(N3CCC(N)CC3)n2)ccc1O`, the XC50 came out at 0.817 µM. Take `Cc1ccccc1C1CCN(C2CCC(NC(=O)/C=C/c3cccc(Cl)c3F)CC2)CC1` (stereo not given): the XC50 came out at 1.14 µM.

In the case of `NC(=O)c1ccc(-n2cnc3cc(F)ccc32)cc1OCc1ccccc1C(F)(F)F.NC(=O)c1ccc(-n2cnc3ccc(F)cc32)cc1OCc1ccccc1C(F)(F)F`, the XC50 was found to be 0.363 µM. Turning to `O=C(NC1CCN(CCC[C@]2(c3ccc(Cl)c(Cl)c3)CCCN(C(=O)c3ccccc3)C2)CC1)c1ccc(Cl)cc1`, the XC50 amounted to 0.899 µM.

Take `COc1ccc(-n2c(=O)c3c(n4c(SC(C)C)nnc24)-c2ccccc2CC32CCCCC2)cc1`: the XC50 amounted to 0.502 µM. In the case of `Cc1[nH]c2ccccc2c1C1=CCN(CCN2CCOc3c(Br)cccc3C2=O)CC1` it was 0.797 µM. `c1ccc(-c2[nH]c3ccccc3c2CN2CCC(N3CCCCC3)CC2)nc1` registered an XC50 of 1.21 µM. In the case of `COC(=O)C1=C(C)NC2=C(C(=O)CC(c3ccc(OC)c(OC)c3)C2)C1c1cccc(O)c1` (stereo not given) it was 0.729 µM; in that of `OC(CNc1ccnc(Nc2cccc(Cl)c2)n1)c1ccc(C(F)(F)F)cc1` (stereo not given), 0.768 µM.

With `Cc1noc(-c2ccc(O)cc2O)c1-c1ccc2c(c1)OCCCO2`, the XC50 stood at 0.892 µM. In the case of `CN(C)CCNCc1ncsc1-c1ccc2c(Nc3ccc(F)cc3Cl)ccnc2c1` it was 1.47 µM. Turning to `N=C(N)Nc1ccc(C(=O)O)c(O)c1`, the XC50 came to 1.03 µM. With `O=C(c1ccc(-c2ccc(-c3nc4cc(C(F)(F)F)ccc4[nH]3)s2)cc1)N1CCN(CCc2ccccc2)CC1`, the XC50 came to 0.592 µM.

Regarding `Cc1ccc(CNC(=O)[C@H](Cc2ccccc2)Nc2cc(C)nc(NCC3CCCCC3)n2)cc1`, the XC50 worked out at 0.899 µM. Turning to `CN1CCC(N2CCC(Oc3cccc(C(=O)NCCCC4CCCC4)c3)CC2)CC1`, the XC50 stood at 0.843 µM.
